ChEMBL document CHEMBL1944620, “Discovery of non-oxime reactivators using an in silico pharmacophore model of oxime reactivators of OP-inhibited acetylcholinesterase” (Eur J Med Chem, 2012)

The molecules below were run on Anguilliformes (assay: Reactivation of DFP-inhibited eel AChE assessed as reactivation efficacy by spectrophotometry).
With Cc1ccc(S(=O)(=O)NC(=O)NCCCNC(=O)OC(C)(C)C)cc1 the Activity was 76 mmol⁻¹ min⁻¹. For FC(F)(F)c1ccnc(NCCNC(=S)NCc2ccco2)n1, the Activity was 11 mmol⁻¹ min⁻¹. COc1cc(/C=N/NC(=O)c2ccc(N)cc2)cc(Br)c1OCc1ccccc1Cl gave an Activity of 214 mmol⁻¹ min⁻¹. O=C1CCC(=O)N1c1ccc(S(=O)(=O)N2CCN(c3nccc(C(F)(F)F)n3)CC2)cc1 showed an Activity of 48.4 mmol⁻¹ min⁻¹. With OC(CNCCNc1nccc(C(F)(F)F)n1)CSc1ccc(F)cc1 (centres undefined) the Activity was 30.2 mmol⁻¹ min⁻¹. Cc1nc(-c2ccccn2)nc(N2CCN(CCO)CC2)c1Cl gave an Activity of 13.9 mmol⁻¹ min⁻¹. FC(F)(F)c1ccnc(Oc2ccc(/C=N/NC(=S)Nc3cc(Cl)ccc3Cl)cc2)n1 showed an Activity of 53.6 mmol⁻¹ min⁻¹. O=C(Nc1cc(F)cc(F)c1)N1CCCN(c2ncc(C(F)(F)F)cc2Cl)CC1 was tested, and the Activity was 80.7 mmol⁻¹ min⁻¹. For COc1cc(/C=N/NC(=O)c2cnc3ccccc3c2)cc(Br)c1OCc1ccccc1Cl, the Activity was 13 mmol⁻¹ min⁻¹. With OC(CNCCNc1ccc(C(F)(F)F)cn1)CSc1ccc(F)cc1 (centres undefined) the Activity was 71.6 mmol⁻¹ min⁻¹. For OC(CNCCNc1nccc(C(F)(F)F)n1)COc1ccccc1 (centres undefined), the Activity was 26.3 mmol⁻¹ min⁻¹. For COc1cc(C(=O)Oc2c(Br)cc(Br)cc2/C=N/NC(=O)C(O)(c2ccccc2)c2ccccc2)cc(OC)c1OC, the Activity was 39.9 mmol⁻¹ min⁻¹. In the case of OC(COc1ccc(Cl)c(Cl)c1)CN1CCN(c2nc3ccc(Cl)cc3s2)CC1 (centres undefined), the Activity is reported as 25.1 mmol⁻¹ min⁻¹. CC(C)(C)OC(=O)N1CCCN(C(=S)Nc2ccccc2N2CCOCC2)CC1 was tested, and the Activity was 65.9 mmol⁻¹ min⁻¹. In the case of O=C(Nc1ccc(Cl)cc1)N1CCCN(c2ccc(C(F)(F)F)cc2[N+](=O)[O-])CC1, the Activity is reported as 101 mmol⁻¹ min⁻¹. In the case of Cc1cc(C)cc(NC(=O)N2CCCN(c3ncccc3[N+](=O)[O-])CC2)c1, the Activity is reported as 77.2 mmol⁻¹ min⁻¹. In the case of OC(CNCCNc1nccc(C(F)(F)F)n1)COc1ccc(Cl)c(Cl)c1 (centres undefined), the Activity is reported as 75.2 mmol⁻¹ min⁻¹. CCOC(=O)c1cc(C#N)c(C)nc1N1CCN(S(=O)(=O)c2ccccc2)CC1 was tested, and the Activity was 24.7 mmol⁻¹ min⁻¹. OC(CNCCNc1nccc(C(F)(F)F)n1)Cn1ccc2ccccc21 (centres undefined) gave an Activity of 57 mmol⁻¹ min⁻¹. In the case of COc1ccc(/C=C(/NC(=O)c2ccccc2)C(=O)N/N=C\c2cc(Br)c(OCc3ccccc3Cl)c(OC)c2)cc1, the Activity is reported as 673 mmol⁻¹ min⁻¹. OC(CNCCNc1nccc(C(F)(F)F)n1)COc1ccc(OC(F)(F)F)cc1 (centres undefined) showed an Activity of 34.4 mmol⁻¹ min⁻¹. Work on CCOC(=O)c1cc(-c2nc(C(=O)NN)cs2)c(C)nc1C(F)(F)F yielded an Activity of 156 mmol⁻¹ min⁻¹. With C[n+]1ccccc1C=NO the Activity was 2.61 mmol⁻¹ min⁻¹. OC(CNCCNc1ccc(C(F)(F)F)cn1)COc1ccccc1 (centres undefined) showed an Activity of 20.6 mmol⁻¹ min⁻¹. With S=C(NC1CCCCCCC1)N1CCCN(c2nc3ccc(Cl)cc3s2)CC1 the Activity was 26.7 mmol⁻¹ min⁻¹. In the case of CC(CO)(CO)NCC(O)COc1ccc(OC(F)(F)F)cc1 (centres undefined), the Activity is reported as 73 mmol⁻¹ min⁻¹. COc1ccc(CCNCC(O)Cn2ccc3ccccc32)cc1OC (centres undefined) gave an Activity of 79.6 mmol⁻¹ min⁻¹. In the case of COc1cccc(C(=O)Oc2c(Br)cc(Br)cc2/C=N/NC(=O)CNC(=O)c2ccc(OC)c(OC)c2)c1, the Activity is reported as 56.2 mmol⁻¹ min⁻¹. COc1cc(/C=N/NC(=O)c2ccccc2NC(C)=O)cc(Br)c1OCc1ccccc1Cl was tested, and the Activity was 33.1 mmol⁻¹ min⁻¹. Work on COc1ccc(C2NCCc3c2[nH]c2ccc(OCc4ccccc4)cc32)cc1COc1c(Br)cc(Br)cc1Br (centres undefined) yielded an Activity of 102 mmol⁻¹ min⁻¹. OC(CNCCNc1nccc(C(F)(F)F)n1)CSc1ccccc1 (centres undefined) gave an Activity of 91.1 mmol⁻¹ min⁻¹. Work on OC1CCN(CC(O)COc2ccc(Cl)c(Cl)c2)CC1 (centres undefined) yielded an Activity of 34.3 mmol⁻¹ min⁻¹. Work on O=[N+]([O-])c1ccc(OCC(O)CNCCNc2nccc(C(F)(F)F)n2)cc1 (centres undefined) yielded an Activity of 212 mmol⁻¹ min⁻¹. O=[N+]([O-])c1ccc(N2CCCN(C(=S)Nc3ccc(F)cc3Br)CC2)nc1 showed an Activity of 10.7 mmol⁻¹ min⁻¹. OC(CNCCNc1nccc(C(F)(F)F)n1)COc1cccc(C(F)(F)F)c1 (centres undefined) was tested, and the Activity was 38 mmol⁻¹ min⁻¹.

These molecules were tested on Anguilliformes (assay: Reactivation of DFP-inhibited eel AChE by spectrophotometry relative to 2-PAM).
Molecule FC(F)(F)c1ccnc(NCCNC(=S)NCc2ccco2)n1 has a Ratio of less than 10. Work on Cc1nc(-c2ccccn2)nc(N2CCN(CCO)CC2)c1Cl yielded a Ratio of less than 10. In the case of COc1cc(/C=N/NC(=O)c2cnc3ccccc3c2)cc(Br)c1OCc1ccccc1Cl, the Ratio is reported as less than 10. O=[N+]([O-])c1ccc(N2CCCN(C(=S)Nc3ccc(F)cc3Br)CC2)nc1 was tested, and the Ratio was less than 10.
